Measurements reported in patent US20090215826A1, “SOLID FORMS OF A PYRROLIDINE-3,4-DICARBOXAMIDE DERIVATIVE” (priority 2007, published 2009).

Test: Storage stability of crystalline form B (HPLC, IR, XRPD)
Assay type: physicochemical
Details: storage for 1 year up to 40° C./75% rh
Protocol: “IR” is used herein as an acronym of Infra Red spectroscopy. IR spectra were recorded as film of a Nujol suspension of approximately 5 mg of sample and few Nujol between two sodium chloride plates, with an FTIR spectrometer in transmittance. The Spectrometer is a Nicolet™ 20SXB or equivalent (resolution 2 cm^−1, 32 or more coadded scans, MCT detector).
“XRPD (is used herein as an acronym of X-Ray Powder Diffraction)” X-ray diffraction patterns were recorded at ambient conditions in transmission geometry with a STOE STADIP diffractometer (Cu Kα radiation, primary monochromator, position sensitive detector, angular range 3° to 42° 2 Theta, approximately 60 minutes total measurement time). The samples were prepared and analyzed without further processing (e.g. grinding or sieving) of the substance. “TGA (is used herein as an acronym of ThermoGravimetric Analysis)” was performed on a Mettler-Toledo™ thermogravimetric analyzer (TGA850 or TGA851). System suitability tests and calibrations were carried out according to the internal standard operation procedure.
The Form B has been characterized with IR and XRPD. The chemical stability was measured by HPLC (high performance liquid chromatography).

chemical stability (degradation) measured by HPLC: No significant degradation
crystal form compared to the initial analysis (IR and XRPD): has not been changed
Structure (SMILES): O=C(Nc1ccc(Cl)cn1)[C@H]1CN(CC(F)F)C[C@@H]1C(=O)Nc1ccc(-n2ccccc2=O)cc1F [Form B, (3R,4R)-1-(2,2-Difluoroethyl)-pyrrolidine-3,4-dicarboxylic acid 3-[(5-chloro-pyridin-2-yl)-amide] 4-{[2-fluoro-4-(2-oxo-2H-pyridin-1-yl)-phenyl]-amide}]
